The target of test [1] is recombinant sortase SrtAΔN (His6-tagged) (Staphylococcus aureus (Oxford strain)) (UniProt Q2FV99).
The target in test [2] is T1, SrtAΔN (Staphylococcus aureus, UniProt Q2FV99).
T1 construct: The region of the SrtA gene lacking the N-terminal membrane domain was then PCR-amplified; made in house; host or cells: E. coli HMS174(DE3)pLysS
The test is described as follows: biochemical. In kind it is biochemical, S. aureus. The note with it: for k1 (first-order rate constant ki for covalent modification of SrtAΔN) / ki/Ki (specificity constant): 37° C., means ± S.E.M., four determinations; for k1 (first-order rate constant ki for covalent modification of SrtAΔN): pH 7.5, inhibitor 25-200 μM; for ki/Ki (specificity constant): pH 7.5. Here is the method: Using methods described previously, SrtAΔN activity was measured with the internally quenched substrate 4([4-(dimethylamino)phenyl]azo)-benzoyl(Dabcyl)-[…][(2-aminoethyl)-amino]napthalenel-sulphonyl (Edans) (prepared by standard Fmoc solid-phase synthesis) on a CytoFluor 4000® multi-well fluorimeter (PerSeptive Biosystems, Foster City, Calif., U.S.A.). All SrtAAN assays were performed at 37° C. (in triplicate) in 50 mM Tris/HCI (pH 7.5) containing 150 mM NaCl, 5 mM CaCl2, 5 mM NH,-Gly3 and 5 mM dithiothreitol (SrtA buffer). Wells contained approx. 10 pM of purified SrtAoN and 50 pM of substrate, in a final volume of 200, ul. The Km and kcat values for the SrtAΔN-catalysed cleavage of the internally quenched sub-strate were calculated by fitting the data points directly into the Michaelis-Menten equation for substrate hydrolysis, using GraFit® software (Erithacus Software, Horley, Surrey, U.K.).
Data from the curves were fitted, using non-linear regression analysis, to the integrated rate equation [P]=PJ1-e “-Pp”). This equation represents a first-order rate process for the formation of product P as a function of time, where kapp is the apparent rate constant and P. represents the concentration of product at a time approaching infinity. Using five different concentrations for each inhibitor (25, 50, 100, 150 and 200/μM), the values kapp and P∞were determined and utilized to evaluate the apparent second-order rate constant A for the inactivation of SrtAΔN in the presence of the substrate. The individual kinetic constants ki and Ki were then evaluated for both inhibitors from a plot of 1/A versus inhibitor concentration [I] [28], and the specificity constant k;/K; was calculated.
Data from the progress curves for SrtΔN-catalysed hydrolysis of the internally quenched substrate Dabcyl-[…]Edans in the presence of five different concentrations of inhibitors I and II (25, 50, 100, 150 and 200, W) were fitted by non-linear regression analysis to the integrated rate equation [P]=P∞(1-e^−kaPPt). The P∞. and kapp values were determined and used to evaluate the apparent second-order rate constant A for inactivation of SrtΔN in the presence of substrate. The individual kinetic constants k and K were then evaluated from a plot of 1/A versus inhibitor concentration [I], and the specificity constant for each inhibitor (kiKi) calculated. Values represent the means ±S.E.M. for four determinations.

Test [3] concerns the target T1, SrtAΔN. The test is described as follows: Affinity labelling of recombinant SrtAΔN, Western blot with streptavidin-alkaline phosphatase. In kind it is binding, S. aureus.
Procedure: (§1) To detect the affinity-labelled recombinant and wild-type SrtA, samples were analysed by Western-blot analysis [19,24-26]. Briefly, samples were treated with denaturing treatment buffer and the proteins separated by SDS/PAGE on 4-20% (w/v) linear gradient gels, followed by semi-dry transfer to a nitrocellulose membrane (Schleicher and Schiill, Dassel, Germany). After transfer, non-specific binding sites were quenched with a 3% (w/v) solution of BSA in 20 mM Tris/HCI (pH 7.4), containing 150 mM NaCl. To detect the biotin group, the membrane was incubated with a streptavidin-alkaline phosphatase conjugate (1:500). […] Bound antibody was detected with a goat anti-rabbit IgG alkaline phosphatase conjugate (1:20000).
In lane 3, the bound fraction eluted from the column with 10 mM imidazole (purified SrtAΔN) was also analysed.
Test [4] has as its target T2, cathepsin B (Homo sapiens, UniProt P07858). Particulars: reference [30]; cited from earlier work.
Test [5] has as its target T2, cathepsin B. Particulars: cathepsin B/Cbz-Phe-Phe-CH2Cl versus SrtAΔN/II.
The next test addresses T3, wild-type SrtA (Staphylococcus aureus, UniProt Q2FV99).
T3 construct: endogenous in cells; host or cells: S. aureus Oxford strain (ATCC 9144)
The test is described as follows: Affinity labelling of wild-type SrtA in crude S. aureus cell lysates, Western blot. The note with it: lysate probed with III; additional 24 kDa band, confirmed with antiserum. Type of test: binding. Here is the method: For the disclosure of wild-type SrtA in S. aureus, a 50 ml overnight culture of the organism in LB broth was prepared. The bacterial cells were centrifuged at 3000 g for 15 min and the resulting pellet was washed in 5 ml of SrtA buffer. The washed bacteria were then resuspended in 1 ml of SrtA buffer containing 0.1 g of glass beads. The suspension was vortex-mixed continuously for 5 min followed by centrifugation at 1500 g for 15 min to remove the beads and unbroken cells. To 100 pl of purified SrtAΔN and the crude bacterial preparations, the inhibitor biotin-Ahx-Leu-Pro-Ala-Thr-CHN2 (III) was added (final concentration 50 pM) before incubation at 37° C. for 30 min.
To detect the affinity-labelled recombinant and wild-type SrtA, samples were analysed by Western-blot analysis. […] Bound antibody was detected with a goat anti-rabbit IgG alkaline phosphatase conjugate (1:20000).
Western-blotting experiments were performed with biotinAhx-Leu-Pro-Ala-Thr-CHN2 (III) to detect the presence of wildtype SrtA in crude cell lysates from S. aureus (Oxford strain; see FIG. 8B). […] In the duplicate lanes 3 and 4, which contained cell lysate “probed” with biotin-Ahx-Leu-Pro-Ala-Thr-CHN2 (III), the BCCP protein was detected along with an additional protein of apparent molecular mass 24 kDa. […]
In general terms: A western blot detects proteins with antibodies after separation by electrophoresis.

The next test concerns the target SrtB (Staphylococcus aureus, UniProt Q2FZE3). Type of test: binding. Particulars: crude S. aureus extracts, iron not added to culture media.

“And” between values parts separate entries of the source, which are not always exact repeats. Equal values may be shown once. Where a SMILES comes first, the peptide text is derived from it. The star is where a group is joined. Biotin = O=C1N[C@H]2[C@H](CS[C@H]2CCCCC(=O)*)N1; Cbz = O=C(OCc1ccccc1)*; CHN2 = [N-]=[N+]=C*; Ahx = NCCCCCC(=O)O; CH2Cl = ClC*

Procedure for SrtB: as §1

Turning to “Cbz-Leu-Pro-Ala-Thr-CHN2 (I), peptidyl-diazomethane inhibitor (peptide)”, in test [1], the ki (first-order rate constant of inactivation) came out at 0.0058 min⁻¹ and the ki/Ki (specificity constant) was found to be 367 M⁻¹ s⁻¹.
Usually Ki stands for a measure of affinity in units of concentration, obtained from inhibition or displacement. Turning to `CC(C)C[C@H](NC(=O)OCc1ccccc1)C(=O)N1CCC[C@H]1C(=O)N[C@@H](C)C(=O)N[C@H](C(=O)CCl)[C@@H](C)O` [Inhibitor II, Cbz-Leu-Pro-Ala-Thr-CH2Cl] (Cbz-LPAT-CH2Cl), on SrtAΔN [2], the Ki came out at 210 nM; the “k1 (first-order rate constant ki for covalent modification of SrtAΔN)” value was 1.1×10^−2 min^−1 and 1.1 ± 0.1 × 10^−2 min^−1; the “ki/Ki (specificity constant)” value is 5.3×10^4 M^−1 − min^−1 and 5.3 ± 0.6 × 10^4 M^−1 − min^−1. On SrtAΔN [2] (II versus I), the “covalently modifies SrtAΔN more rapidly than peptidyl-diazomethane I (by ki)” value is on record as “approx. 2 fold” and the “inactivates SrtAΔN more rapidly than analogous diazomethane sequence I (by specificity constants)” value was “approx. 2 fold”.
Take `CC(C)C[C@H](NC(=O)OCc1ccccc1)C(=O)N1CCC[C@H]1C(=O)N[C@@H](C)C(=O)N[C@H](C(=O)C=[N+]=[N-])[C@@H](C)O` [Inhibitor I, Cbz-Leu-Pro-Ala-Thr-CHN2] (Cbz-LPAT-CHN2): at SrtAΔN [2], the Ki was 220 nM; the “k1 (first-order rate constant ki for covalent modification of SrtAΔN)” value is 5.8×10^−3 min^−1 and 5.8 ± 0.6 × 10^−3 min^−1; the “ki/Ki (specificity constant)” value was 2.2×10^4 M^−1 − min^−1 and 2.2 ± 0.2 × 10^4 M^−1 − min^−1.
Consider `O=C(O)c1cc[c]([Hg][OH])cc1` [pHMB, reference compound], for which the “effect of pre-treatment on SrtAΔN labelling by III” value on SrtAΔN [3] (purified SrtAΔN pre-treated with thiol-directed inhibitor before probing with III) was “complete diminution of SrtAΔN labelling”.
As for Cbz-Phe-Phe-CH,Cl, the “ki for alkylation of the active-site cysteine residue of cathepsin B” value at cathepsin B [4] is 12.5 min⁻¹. Also, the “ki greater than irreversible modification of SrtAΔN by peptidyl-chloromethane II” value on cathepsin B [5] is recorded as “approx. 1000 fold”.
On to {Biotin-Ahx}-LPAT-CHN2 [Inhibitor III], for which, at SrtAΔN [3] (50 μM, 37° C., 30 min, approx. 30 kDa band labelled in crude E. coli lysate and purified fraction), the “nature of binding of biotinylated inhibitor to SrtAΔN” value is “active-site-directed”. In addition, at wild-type SrtA, the “detection of wild-type SrtA in crude S. aureus lysate” value is on record as “affinity-labelled SrtA”. Moreover, the “selectivity of labelling, SrtA versus SrtB” value at SrtB was “selectively disclosed wild-type SrtA, but not SrtB”.
Regarding “Cbz-Leu-Pro-Ala-Thr-CH2Cl (II), peptidyl-chloromethane inhibitor (peptide)”, in test [1], the ki (first-order rate constant of inactivation) worked out at 0.011 min⁻¹ and the ki/Ki (specificity constant) is 883 M⁻¹ s⁻¹.

Source of the values: US20040230033A1, “Substrate-derived affinity labels, and uses thereof” (priority 2003, published 2004).
